For 49 compounds, melting point and IC50 results are on record in patent US6710047B2, “Phthalazines with angiogenesis inhibiting activity” (Novartis AG, priority 1997, dated 2004).

In data set [1] the target is T1, Flt-1 VEGF-receptor tyrosine kinase (Homo sapiens, UniProt P17948).
T1 sequence (P17948 827-1158 limits assumed): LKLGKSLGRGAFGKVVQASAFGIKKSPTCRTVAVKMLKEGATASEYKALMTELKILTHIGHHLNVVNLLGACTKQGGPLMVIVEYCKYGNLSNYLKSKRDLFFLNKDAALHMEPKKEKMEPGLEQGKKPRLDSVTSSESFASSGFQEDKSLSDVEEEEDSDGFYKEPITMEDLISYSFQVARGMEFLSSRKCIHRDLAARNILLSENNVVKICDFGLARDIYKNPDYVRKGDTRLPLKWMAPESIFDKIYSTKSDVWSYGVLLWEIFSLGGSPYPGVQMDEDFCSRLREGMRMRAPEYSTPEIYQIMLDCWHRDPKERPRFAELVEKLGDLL
In words: Test for activity against Flt-1 VEGF-receptor tyrosine kinase.
Description: Test for activity against VEGF-receptor tyrosine kinase. The test is conducted using Flt-1 VEGF-receptor tyrosine kinase. […] The reaction is then ended by the addition of 10 μl 0.25 M ethylenediaminetetraacetate (EDTA) pH 7. Using a multichannel dispenser (LAB SYSTEMS, USA), an aliquot of 20 μl is applied to a PVDF (=polyvinyl difluoride) Immobilon P membrane (Millipore, USA), incorporating a Millipore microtiter filter manifold, and connected to a vacuum.
The test is conducted using Flt-1 VEGF-receptor tyrosine kinase, as described hereinabove.

The mark [2] stands for this setting: kinase domain of Flt-1, poly(Glu,Tyr) 4:1, 8 μM [33P]-ATP, 15 minutes at room temperature.

Molecules are shown by their SMILES. Where a name gives a salt, the structure may show the parent alone. Read-outs that look alike come from different tables or passages of the source.

On to `COc1ccc(Nc2nnc(Cc3ccncc3)c3ccccc23)cc1Cl` [Example 23, 1-(3-Chloro-4-methoxyanilino)-4-(4-pydridylmethyl)phthalazine], for which the melting point – broadly, the temperature of the solid-liquid transition – lay within 195 to 197 °C. Besides, the IC50 – broadly, the concentration at which inhibition is half-maximal – in data set [1] was determined as 515 nM. The compound `Cc1ccc(Nc2nnc(Cc3ccncc3)c3ccccc23)cc1F` [Example 44C, 1-(3-Fluoro-4-methylanilino)-4-(4-pyridylmethyl)phthalazine] yielded a melting point of 210 to 212 °C. Further, in data set [1], the IC50 was 42 nM. Compound `Clc1ccc(Nc2nnc(Cc3ccncn3)c3ccccc23)cc1` [Example 66, 1-(4-Chloroanilino)-4-(4-pyrimidinylmethyl)phthalazine] came in with a melting point of 174 to 176 °C. Besides, in data set [1], half-maximal inhibition (IC50) required 2400 nM.

`c1ccc(COc2cccc(Nc3nnc(Cc4ccncc4)c4ccccc34)c2)cc1` [Example 9, 1-(3-Benzyloxyanilino)-4-(4-pyridylmethyl)phthalazine] returned a melting point of 142 to 143 °C. For the same compound, the half-maximal inhibitory concentration (IC50) in data set [1] was 970 nM. In turn, `Cc1ccc(Nc2nnc(Cc3ccncc3)c3ccccc23)cc1O` (hydrate or solvate) [Example 67B] yielded a melting point of 192 to 195 °C. The compound `CCOc1ccc(Nc2nnc(Cc3ccncc3)c3ccccc23)cc1` [Example 44E, 1-(4-Ethoxyanilino)-4-(4-pyridylmethyl)phthalazine] came in with a melting point of 223 to 224 °C. For the same compound, half-maximal inhibition in data set [1] (IC50) was put at 490 nM.

In turn, `Oc1ccc(Nc2nnc(Cc3ccncc3)c3ccccc23)cc1` [Example 19, 1-(4-Hydroxyanilino)-4-(4-pyridylmethyl)phthalazine] came in with a melting point of 239 to 241 °C. The compound also returned an IC50 in data set [1] of 730 nM. For `Cc1ccc(Nc2nnc(Cc3ccncc3)c3ccccc23)cc1` [Example 37, 1-(4-Methylanilino)-4-(4-pyridylmethyl)phthalazine], in that order: 152 to 153 °C and 154 nM. For `Clc1ccc(Oc2nnc(Cc3ccncc3)c3ccccc23)cc1` [Example 72B], in that order: 207 to 208 °C and 284 nM.

With `Nc1ccc2c(Cc3ccncc3)nnc(Nc3cccc(Cl)c3)c2c1` [Example 32B], the IC50 in data set [1] came to 1000 nM. The compound `Cc1cc(Cc2nnc(Nc3ccc(Cl)cc3)c3ccccc23)ccn1` [Example 44F, 1-(4-Chloroanilino)-4-[(2-methyl-4-pyridyl)methyl]phthalazine] showed a melting point of 158 to 159 °C. The midpoint of inhibition in data set [1] (setting [2]), the IC50, lay at 624 nM.

`CC(C)c1ccc(Nc2nnc(Cc3ccncc3)c3ccccc23)cc1` (as salt: hydrochloride) [Example 47, 1-(4-Isoprolylanilino)-4-(4-pyridylmethyl)phthalazine dihydrochloride] yielded a melting point above 250 °C. The same measure, in the same setting: next, `CC(C)(C)c1ccc(Nc2nnc(Cc3ccncc3)c3ccccc23)cc1.Cl.Cl`: 196 to 200 °C. For the compound `Cc1cccc(Nc2nnc(Cc3ccncc3)c(C)c2C)c1` [Example 82E, 3-(3-methylanilino)-4,5-dimethyl-6-(pyridin-4-yl)methylpyridazine], the IC50 in data set [1] was 2500 nM.

As to `Clc1cccc(Oc2nnc(Cc3ccncc3)c3ccccc23)c1` [Example 72A, 1-(3-Chlorophenoxy)-4-(4-pyridylmethyl)phthalazine], the IC50 in data set [1] was 1270 nM.

`c1ccc2c(NC3CCCCC3)nnc(Cc3ccncc3)c2c1` [Example 57, 1-Cyclohexylamino-4-(4-pyridylmethyl)phthalazine] returned a melting point of 137 to 139 °C. The IC50 in data set [1] is 16000 nM. For `Clc1ccc(Sc2nnc(Cc3ccncc3)c3ccccc23)cc1` [Example 72E], in that order: 204 to 206 °C and 1200 nM. On to `Clc1ccc(Nc2nnc(Cc3ccncc3)c3ccccc23)cc1Cl` [Example 21, 1-(3,4-Dichloroanilino)-4-(4-pyridylmethyl)phthalazine], for which the melting point was 249 to 250 °C. In data set [1], this compound came in with an IC50 of 410 nM.

`Oc1cccc(Nc2nnc(Cc3ccncc3)c3ccccc23)c1`: the melting point fell in the range of 217 to 219 °C.

Consider `Clc1ccc(Nc2nnc(Cc3ccncc3)c3c2CCCC3)cc1` [Example 44H, 1-(4-Chloroanilino) 4-(4-pyridylmethyl)-5,6,7,8-tetrahydrophthalazine], for which the melting point fell in the range of 181 to 183 °C. In data set [1], this compound registered an IC50 of 11400 nM. For `Cc1cc(C)cc(Nc2nnc(Cc3ccncc3)c3ccccc23)c1` [Example 46, 1-(3,5-Dimethylanilino)-4-(4-pyridylmethyl)phthalazine], in that order: 174 to 175 °C and 349 nM. As for `c1ccc(-c2ccc(Nc3nnc(Cc4ccncc4)c4ccccc34)cc2)cc1`, the melting point was 189 to 191 °C.

For the compound `Nc1ccc2c(Cc3ccncc3)nnc(Nc3ccc(Cl)cc3)c2c1` [Example 32A, 7-Amino-1-(4-chloroanilino)-4-(4-pyridylmethyl)phthalazine hydrochloride], the IC50 in data set [1] was determined as 42 nM. Compound `CCc1cccc(Nc2nnc(Cc3ccncc3)c3ccccc23)c1` [Example 67E] came in with a melting point of 143 to 144 °C. Besides, the IC50 in data set [1] is 440 nM. In turn, `Cc1c(Cc2ccncc2)nnc(Nc2ccc(Cl)cc2)c1C` [Example 82A, 3-(4-chloroanilino)-4,5-dimethyl-6-(pyridin-4-yl)methylpyridazine] came in with an IC50 in data set [1] of 478 nM.

Regarding `Cl.Cl.c1ccc(Nc2nnc(Cc3ccncc3)c3ccccc23)cc1`, the melting point fell in the range of 217 to 220 °C. For the compound `CC1(c2ccc(Nc3nnc(Cc4ccncc4)c4ccccc34)cc2)OCCO1` [Example 70B, 1-[(2′-methyl-1′,3′-dioxolan-2′-yl)-anilino]-4-(4-pyridylmethyl)phthalazine], half-maximal inhibition in data set [1] (setting [2]) (IC50) required 1000 nM. In the case of `COc1ccc(Nc2nnc(Cc3ccncc3)c3ccc(NC(C)=O)cc23)cc1.Cl`, the melting point lay in the range of 160 to 163 °C. `[O-][n+]1nc(Nc2ccc(Cl)cc2)c2ccccc2c1Cc1ccncc1` [Example 55, 1-(4-Chloroanilino)-4-(4-pyridylmethyl)phthalazine-3-oxide] showed a melting point of 226 to 228 °C. With `COc1cc(Nc2nnc(Cc3ccncc3)c3ccccc23)cc(OC)c1OC` [Example 54, 1-(3,4,5-Trimethoxyanilino)-4-(4-pyridylmethyl)phthalazine], the melting point lay in the range of 110 to 111 °C.

In turn, `COc1cccc(Nc2nnc(Cc3ccncc3)c3ccc(N)cc23)c1` [Example 32F] yielded an IC50 in data set [1] of 793 nM.

On to `FC(F)C(F)(F)Oc1cccc(Nc2nnc(Cc3ccncc3)c3ccccc23)c1` (hydrate or solvate) [Example 67S], for which the melting point was in the range of 185 to 187 °C. Same read-out and setting: next, `COc1cccc(Nc2nnc(Cc3ccncc3)c3ccc(NC(C)=O)cc23)c1.Cl`: 156 to 159 °C; `CC(=O)Nc1ccc(Nc2nnc(Cc3ccncc3)c3ccccc23)cc1` [Example 11, 1-(4-Acetaminoanilino)-4-(4-pyridylmethyl)phthalazine]: above 270 °C; `C[C@@H](Nc1nnc(Cc2ccncc2)c2ccccc12)c1ccccc1.Cl.Cl`: 190 °C (dec.). `CC(=O)c1cccc(Nc2nnc(Cc3ccncc3)c3ccccc23)c1` [Example 70A, 1-(3-Acetylanilino)-4-(4-pyridylmethyl)phthalazine] had an IC50 in data set [1] of 1000 nM. The same measure, in the same setting: the figure for `Cc1ccc(Nc2nnc(Cc3ccncc3)c(C)c2C)cc1` [Example 82B, 3-(4-methylanilino)-4,5-dimethyl-6-(pyridin-4-yl)methylpyridazine] is 774 nM. `CC(=O)Nc1ccc2c(Cc3ccncc3)nnc(Nc3ccccc3)c2c1.Cl`: the melting point lay within 162 to 166 °C. The same measure, in the same setting: next, `CC(=O)Nc1ccc2c(Cc3ccncc3)nnc(Nc3ccc(Cl)cc3)c2c1.Cl`: 260 to 265 °C; `Clc1ccc(Nc2nnc(NCc3ccncc3)c3ccccc23)cc1` [Example 49, 1-(4-Chloroanilino)-4-(4-pyridylmethylamino)phthalazine]: 233 to 236 °C; `c1cncc(Nc2nnc(Cc3ccncc3)c3ccccc23)c1` [Example 15, 1-(3-Pyridylamino)-4-(4-pyridylmethyl)phthalazine]: 137 to 139 °C. As to `Clc1cccc(Nc2nnc(Cc3ccncc3)c3ccccc23)c1` [Example 5, 1-(3-Chloroanilino)-4-(4-pyridylmethyl)phthalazine 1,8 hydrochloride], the IC50 in data set [1] is 210 nM. On the same count and under the same terms, the figure for `FC(F)C(F)(F)Oc1cccc(Nc2nnc(Cc3ccncc3)c3ccccc23)c1` [Example 67S] is 1200 nM. In the case of `Cc1ccc(Nc2nnc(Cc3ccncc3)c3ccc(N)cc23)cc1` [Example 32D], the IC50 in data set [1] is 480 nM. Take `COc1cccc(Nc2nnc(Cc3ccncc3)c3ccccc23)c1`: the melting point was 118 to 120 °C. Regarding `CC(C)c1cccc(Nc2nnc(Cc3ccncc3)c3ccccc23)c1` [Example 67Q], in data set [1], the IC50 is 328 nM. In other words, the sub-micromolar range. The compound `CC(c1ccncc1)c1nnc(Nc2ccc(Cl)cc2)c2ccccc12` (racemic) [Example 64, rac 1-(4-Chloroanilino) 4-[1-(4-pyridyl)ethyl]phthalazine] gave an IC50 in data set [1] (setting [2]) of 907 nM. Take `CC(C)c1ccc(Nc2nnc(Cc3ccncc3)c3ccccc23)cc1` [Example 47, 1-(4-Isoprolylanilino)-4-(4-pyridylmethyl)phthalazine dihydrochloride]: in data set [1], the IC50 came to 188 nM.

In data set [1], `Cc1ccc(Nc2nnc(Cc3ccncc3)c3ccccc23)cc1O` [Example 67B] had a half-maximal inhibitory concentration (IC50) of 335 nM.
